Values of other authors in patent US8183241B2, “2-oxo-1-pyrrolidine derivatives” (UCB Pharma, S.A., priority 2005, dated 2012).

Settings: Eur. J. Pharmacol. (1992), 222, 193-203

In the case of CC[C@H](C(N)=O)N1CCCC1=O [(R)-α-ethyl-2-oxo-1-pyrrolidine acetamide], the “activity in the treatment of epilepsy” value is listed as “completely lacks activity”.
In the case of CC[C@@H](C(N)=O)N1CCCC1=O [Levetiracetam, (S)-α-ethyl-2-oxo-1-pyrrolidine acetamide], the “activity in the treatment of epilepsy” value is given as “effective in the treatment of epilepsy”.
